Source: ChEMBL document CHEMBL4177526, “Discovery and structure activity relationship of the first potent cryptosporidium FIKK kinase inhibitor” (Bioorg Med Chem, 2017)
pIC50: −log10 of the molar value.

What was measured:
[1] = target: Serine/threonine-protein kinase STK11 (Homo sapiens) (UniProt Q15831); experiment: Inhibition of human LKB1 (1 to 433 residues) assessed as residual activity at 500 nM in presence of 33P-ATP by filter binding assay relative to control
[2] = target: NUAK family SNF1-like kinase 1 (Homo sapiens) (UniProt O60285); experiment: Inhibition of human NUAK1 (2 to 660 residues) assessed as residual activity at 500 nM in presence of 33P-ATP by filter binding assay relative to control
[3] = target: Mitogen-activated protein kinase kinase kinase 9 (Homo sapiens) (UniProt P80192); experiment: Inhibition of human MLK1 (132 to 413 residues) assessed as residual activity at 500 nM in presence of 33P-ATP by filter binding assay relative to control
[4] = target: Serine/threonine-protein kinase Chk2 (Homo sapiens) (UniProt O96017); experiment: Inhibition of human CHK2 (5 to 543 residues) assessed as residual activity at 500 nM in presence of 33P-ATP by filter binding assay relative to control
[5] = target: Serine/threonine-protein kinase PAK 6 (Homo sapiens) (UniProt Q9NQU5); experiment: Inhibition of human PAK6 (2 to 681 residues) assessed as residual activity at 500 nM in presence of 33P-ATP by scintillation counting method relative to control
[6] = target: Inhibitor of nuclear factor kappa-B kinase subunit epsilon (Homo sapiens) (UniProt Q14164); experiment: Inhibition of human IKKepsilon (1 to 716 residues) assessed as residual activity at 500 nM in presence of 33P-ATP by filter binding assay relative to control
[7] = target: Mitogen-activated protein kinase kinase kinase kinase 3 (Homo sapiens) (UniProt Q8IVH8); experiment: Inhibition of human MAP4K3 (1 to 873 residues) assessed as residual activity at 500 nM in presence of 33P-ATP by filter binding assay relative to control
[8] = target: Aurora kinase B (Homo sapiens) (UniProt Q96GD4); experiment: Inhibition of human Aurora B (1 to 344 residues) assessed as residual activity at 500 nM in presence of 33P-ATP by filter binding assay relative to control
[9] = target: serine/threonine-protein kinase D1 (Homo sapiens) (UniProt Q15139); experiment: Inhibition of human PKD1 (2 to 912 residues) assessed as residual activity at 500 nM in presence of 33P-ATP by filter binding assay relative to control
[10] = target: Mitogen-activated protein kinase kinase kinase 5 (Homo sapiens) (UniProt Q99683); experiment: Inhibition of human ASK1 (670 to 950 residues) assessed as residual activity at 500 nM in presence of 33P-ATP by filter binding assay relative to control
[11] = target: Mitogen-activated protein kinase 10 (Homo sapiens) (UniProt P53779); experiment: Inhibition of human JNK3 (40 to 422 residues) assessed as residual activity at 500 nM in presence of 33P-ATP by filter binding assay relative to control
[12] = target: Tyrosine-protein kinase JAK2 (Homo sapiens) (UniProt O60674); experiment: Inhibition of JAK2 (unknown origin) assessed as residual activity at 500 nM relative to control
[13] = target: Mitogen-activated protein kinase 14 (Homo sapiens) (UniProt Q16539); experiment: Inhibition of human p38alpha (1 to 360 residues) at 500 nM in presence of 33P-ATP by filter binding assay relative to control
[14] = target: Protein kinase C alpha type (Homo sapiens) (UniProt P17252); experiment: Inhibition of human PKCalpha (1 to 672 residues) assessed as residual activity at 500 nM in presence of 33P-ATP by filter binding assay relative to control
[15] = target: Serine/threonine-protein kinase PAK 4 (Homo sapiens) (UniProt O96013); experiment: Inhibition of human PAK4 (2 to 591 residues) assessed as residual activity at 500 nM in presence of 33P-ATP by filter binding assay relative to control
[16] = target: Serine/threonine-protein kinase tousled-like 1 (Homo sapiens) (UniProt Q9UKI8); experiment: Inhibition of human TLK1 (1 to 766 residues) assessed as residual activity at 500 nM in presence of 33P-ATP by filter binding assay relative to control
[17] = target: MAP/microtubule affinity-regulating kinase 4 (Homo sapiens) (UniProt Q96L34); experiment: Inhibition of human MARK4 (2 to 752 residues) assessed as residual activity at 500 nM in presence of 33P-ATP by filter binding assay relative to control
[18] = Inhibition of recombinant Cryptosporidium parvum FIKK using RRRAPSFYRK peptide as substrate by NADH coupled LDH-PK ATPase assay
[19] = target: Serine/threonine-protein kinase SIK3 (Homo sapiens) (UniProt Q9Y2K2); experiment: Inhibition of human SIK3 (2 to 1369 residues) assessed as residual activity at 500 nM in presence of 33P-ATP by filter binding assay relative to control
[20] = target: Serine/threonine-protein kinase TAO1 (Homo sapiens) (UniProt Q7L7X3); experiment: Inhibition of human TAO1 (1 to 356 residues) assessed as residual activity at 500 nM in presence of 33P-ATP by filter binding assay relative to control
[21] = target: MAP/microtubule affinity-regulating kinase 3 (Homo sapiens) (UniProt P27448); experiment: Inhibition of human MARK3 (2 to 729 residues) assessed as residual activity at 500 nM in presence of 33P-ATP by filter binding assay relative to control
[22] = target: TAK1/TAB1 (Homo sapiens) (UniProt Q15750+O43318); experiment: Inhibition of human TAK1 (1 to 303 residues)/TAB1 (437 to 504 residues) at 500 nM in presence of 33P-ATP by filter binding assay relative to control; type: protein-complex assay
[23] = test system: Cryptosporidium parvum; experiment: Selectivity ratio of IC50 for Cryptosporidium parvum CDPK1 to IC50 for recombinant Cryptosporidium parvum FIKK
[24] = target: Casein kinase I isoform delta (Homo sapiens) (UniProt P48730); experiment: Inhibition of human CK1delta (1 to 415 residues) assessed as residual activity at 500 nM in presence of 33P-ATP by filter binding assay relative to control
[25] = target: Receptor-interacting serine/threonine-protein kinase 2 (Homo sapiens) (UniProt O43353); experiment: Inhibition of human RIPK2 (2 to 311 residues) assessed as residual activity at 500 nM in presence of 33P-ATP by filter binding assay relative to control
[26] = target: High affinity nerve growth factor receptor (Homo sapiens) (UniProt P04629); experiment: Inhibition of human TRKA (441 to 760 residues) assessed as residual activity at 500 nM in presence of 33P-ATP by filter binding assay relative to control
[27] = target: Tyrosine-protein kinase SYK (Homo sapiens) (UniProt P43405); experiment: Inhibition of human SYK (1 to 635 residues) assessed as residual activity at 500 nM in presence of 33P-ATP by filter binding assay relative to control

Tyrosine-protein kinase JAK2 (Homo sapiens), sequence (O60674 whole entry, the tested form may be a part): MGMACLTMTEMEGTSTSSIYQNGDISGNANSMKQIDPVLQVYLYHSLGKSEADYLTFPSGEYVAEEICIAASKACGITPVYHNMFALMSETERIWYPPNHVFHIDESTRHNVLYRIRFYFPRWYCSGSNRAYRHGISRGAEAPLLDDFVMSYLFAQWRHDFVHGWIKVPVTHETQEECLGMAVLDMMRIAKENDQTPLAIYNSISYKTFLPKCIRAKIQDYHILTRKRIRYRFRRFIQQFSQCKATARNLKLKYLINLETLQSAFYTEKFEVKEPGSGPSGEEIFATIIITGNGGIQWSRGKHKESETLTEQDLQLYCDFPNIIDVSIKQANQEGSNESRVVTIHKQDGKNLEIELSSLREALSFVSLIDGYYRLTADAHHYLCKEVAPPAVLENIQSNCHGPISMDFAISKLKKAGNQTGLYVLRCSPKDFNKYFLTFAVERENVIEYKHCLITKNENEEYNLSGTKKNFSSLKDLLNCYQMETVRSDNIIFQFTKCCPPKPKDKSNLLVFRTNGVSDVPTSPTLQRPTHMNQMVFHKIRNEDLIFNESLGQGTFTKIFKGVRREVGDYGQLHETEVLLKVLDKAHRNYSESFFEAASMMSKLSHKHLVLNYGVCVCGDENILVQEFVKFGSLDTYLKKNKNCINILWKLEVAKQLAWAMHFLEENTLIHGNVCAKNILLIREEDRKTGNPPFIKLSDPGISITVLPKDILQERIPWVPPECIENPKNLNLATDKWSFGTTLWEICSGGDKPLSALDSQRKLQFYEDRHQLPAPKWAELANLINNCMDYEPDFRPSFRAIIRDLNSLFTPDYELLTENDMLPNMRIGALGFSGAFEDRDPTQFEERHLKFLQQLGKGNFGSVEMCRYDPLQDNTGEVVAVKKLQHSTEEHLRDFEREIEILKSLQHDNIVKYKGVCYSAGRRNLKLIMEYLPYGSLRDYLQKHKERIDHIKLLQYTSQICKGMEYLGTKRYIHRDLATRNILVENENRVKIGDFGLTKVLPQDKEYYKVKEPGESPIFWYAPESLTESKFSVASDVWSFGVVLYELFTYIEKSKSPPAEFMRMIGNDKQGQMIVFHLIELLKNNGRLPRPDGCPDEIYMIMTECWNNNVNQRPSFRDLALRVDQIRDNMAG
Mitogen-activated protein kinase kinase kinase 5 (Homo sapiens), sequence (Q99683 whole entry, the tested form may be a part): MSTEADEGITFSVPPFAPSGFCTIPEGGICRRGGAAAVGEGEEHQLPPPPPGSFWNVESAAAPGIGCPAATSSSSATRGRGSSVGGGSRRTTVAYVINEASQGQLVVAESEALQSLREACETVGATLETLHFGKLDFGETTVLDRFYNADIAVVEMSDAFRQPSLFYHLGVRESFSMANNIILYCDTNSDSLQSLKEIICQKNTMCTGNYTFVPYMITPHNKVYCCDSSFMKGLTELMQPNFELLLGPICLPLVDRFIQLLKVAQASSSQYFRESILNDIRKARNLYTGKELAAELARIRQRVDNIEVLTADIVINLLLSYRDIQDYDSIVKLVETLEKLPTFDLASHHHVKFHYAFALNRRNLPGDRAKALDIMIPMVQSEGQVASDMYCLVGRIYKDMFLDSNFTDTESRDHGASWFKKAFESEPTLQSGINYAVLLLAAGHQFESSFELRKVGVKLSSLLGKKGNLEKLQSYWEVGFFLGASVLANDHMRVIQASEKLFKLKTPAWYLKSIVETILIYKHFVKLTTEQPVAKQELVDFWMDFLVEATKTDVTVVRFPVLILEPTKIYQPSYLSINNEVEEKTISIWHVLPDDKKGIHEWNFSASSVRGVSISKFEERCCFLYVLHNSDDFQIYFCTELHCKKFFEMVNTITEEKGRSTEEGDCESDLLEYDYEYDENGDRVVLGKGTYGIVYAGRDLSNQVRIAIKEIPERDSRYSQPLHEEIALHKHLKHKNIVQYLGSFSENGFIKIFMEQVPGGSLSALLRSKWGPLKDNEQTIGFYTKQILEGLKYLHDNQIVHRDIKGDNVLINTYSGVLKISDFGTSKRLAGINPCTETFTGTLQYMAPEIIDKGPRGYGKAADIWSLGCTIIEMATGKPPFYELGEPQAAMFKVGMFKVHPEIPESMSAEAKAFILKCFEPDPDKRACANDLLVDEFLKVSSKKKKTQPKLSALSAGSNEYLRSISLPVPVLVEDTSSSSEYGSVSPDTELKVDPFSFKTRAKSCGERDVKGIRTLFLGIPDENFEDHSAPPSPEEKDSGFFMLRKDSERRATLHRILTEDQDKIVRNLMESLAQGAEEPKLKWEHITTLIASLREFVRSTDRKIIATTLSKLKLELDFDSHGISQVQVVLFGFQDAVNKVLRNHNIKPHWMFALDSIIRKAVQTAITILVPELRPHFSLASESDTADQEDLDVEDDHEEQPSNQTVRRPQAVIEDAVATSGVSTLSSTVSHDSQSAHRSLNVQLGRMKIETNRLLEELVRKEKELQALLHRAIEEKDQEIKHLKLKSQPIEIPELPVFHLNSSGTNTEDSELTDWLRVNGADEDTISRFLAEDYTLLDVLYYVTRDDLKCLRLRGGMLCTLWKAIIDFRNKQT
Mitogen-activated protein kinase kinase kinase kinase 3 (Homo sapiens), sequence (Q8IVH8 whole entry, the tested form may be a part): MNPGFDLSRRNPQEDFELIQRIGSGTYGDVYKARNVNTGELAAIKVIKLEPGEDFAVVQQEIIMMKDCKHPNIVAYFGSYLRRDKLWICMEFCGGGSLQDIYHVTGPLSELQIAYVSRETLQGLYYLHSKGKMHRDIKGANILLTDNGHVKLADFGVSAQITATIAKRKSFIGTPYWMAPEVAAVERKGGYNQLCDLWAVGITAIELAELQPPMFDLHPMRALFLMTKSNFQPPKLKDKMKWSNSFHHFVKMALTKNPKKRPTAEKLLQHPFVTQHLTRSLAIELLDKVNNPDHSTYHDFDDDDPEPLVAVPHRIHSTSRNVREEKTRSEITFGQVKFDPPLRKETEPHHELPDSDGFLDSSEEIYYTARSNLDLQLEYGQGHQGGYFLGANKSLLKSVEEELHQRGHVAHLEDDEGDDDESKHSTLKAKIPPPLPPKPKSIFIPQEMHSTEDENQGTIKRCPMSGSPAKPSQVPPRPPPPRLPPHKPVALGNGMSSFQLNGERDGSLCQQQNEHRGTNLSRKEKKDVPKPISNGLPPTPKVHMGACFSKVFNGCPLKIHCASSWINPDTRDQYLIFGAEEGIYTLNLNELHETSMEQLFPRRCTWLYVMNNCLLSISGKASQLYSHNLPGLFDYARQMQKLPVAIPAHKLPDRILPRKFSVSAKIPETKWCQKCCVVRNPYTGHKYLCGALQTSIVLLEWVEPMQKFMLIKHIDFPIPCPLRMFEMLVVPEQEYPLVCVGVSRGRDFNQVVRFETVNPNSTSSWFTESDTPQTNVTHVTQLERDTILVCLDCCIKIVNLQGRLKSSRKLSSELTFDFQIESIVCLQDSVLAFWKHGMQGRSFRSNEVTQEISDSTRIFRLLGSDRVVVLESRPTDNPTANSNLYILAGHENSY
Aurora kinase B (Homo sapiens), sequence (Q96GD4 whole entry, the tested form may be a part): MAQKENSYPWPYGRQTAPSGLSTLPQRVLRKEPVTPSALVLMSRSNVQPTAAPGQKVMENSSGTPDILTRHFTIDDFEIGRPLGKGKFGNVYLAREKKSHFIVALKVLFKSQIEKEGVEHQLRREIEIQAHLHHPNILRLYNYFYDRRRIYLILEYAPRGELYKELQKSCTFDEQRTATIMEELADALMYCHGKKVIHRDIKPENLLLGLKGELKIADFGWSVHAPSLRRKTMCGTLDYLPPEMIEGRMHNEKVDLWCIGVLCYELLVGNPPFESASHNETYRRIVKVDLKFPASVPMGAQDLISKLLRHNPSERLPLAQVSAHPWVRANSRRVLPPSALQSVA
Serine/threonine-protein kinase SIK3 (Homo sapiens), sequence (Q9Y2K2 whole entry, looked up, the tested form may be a part): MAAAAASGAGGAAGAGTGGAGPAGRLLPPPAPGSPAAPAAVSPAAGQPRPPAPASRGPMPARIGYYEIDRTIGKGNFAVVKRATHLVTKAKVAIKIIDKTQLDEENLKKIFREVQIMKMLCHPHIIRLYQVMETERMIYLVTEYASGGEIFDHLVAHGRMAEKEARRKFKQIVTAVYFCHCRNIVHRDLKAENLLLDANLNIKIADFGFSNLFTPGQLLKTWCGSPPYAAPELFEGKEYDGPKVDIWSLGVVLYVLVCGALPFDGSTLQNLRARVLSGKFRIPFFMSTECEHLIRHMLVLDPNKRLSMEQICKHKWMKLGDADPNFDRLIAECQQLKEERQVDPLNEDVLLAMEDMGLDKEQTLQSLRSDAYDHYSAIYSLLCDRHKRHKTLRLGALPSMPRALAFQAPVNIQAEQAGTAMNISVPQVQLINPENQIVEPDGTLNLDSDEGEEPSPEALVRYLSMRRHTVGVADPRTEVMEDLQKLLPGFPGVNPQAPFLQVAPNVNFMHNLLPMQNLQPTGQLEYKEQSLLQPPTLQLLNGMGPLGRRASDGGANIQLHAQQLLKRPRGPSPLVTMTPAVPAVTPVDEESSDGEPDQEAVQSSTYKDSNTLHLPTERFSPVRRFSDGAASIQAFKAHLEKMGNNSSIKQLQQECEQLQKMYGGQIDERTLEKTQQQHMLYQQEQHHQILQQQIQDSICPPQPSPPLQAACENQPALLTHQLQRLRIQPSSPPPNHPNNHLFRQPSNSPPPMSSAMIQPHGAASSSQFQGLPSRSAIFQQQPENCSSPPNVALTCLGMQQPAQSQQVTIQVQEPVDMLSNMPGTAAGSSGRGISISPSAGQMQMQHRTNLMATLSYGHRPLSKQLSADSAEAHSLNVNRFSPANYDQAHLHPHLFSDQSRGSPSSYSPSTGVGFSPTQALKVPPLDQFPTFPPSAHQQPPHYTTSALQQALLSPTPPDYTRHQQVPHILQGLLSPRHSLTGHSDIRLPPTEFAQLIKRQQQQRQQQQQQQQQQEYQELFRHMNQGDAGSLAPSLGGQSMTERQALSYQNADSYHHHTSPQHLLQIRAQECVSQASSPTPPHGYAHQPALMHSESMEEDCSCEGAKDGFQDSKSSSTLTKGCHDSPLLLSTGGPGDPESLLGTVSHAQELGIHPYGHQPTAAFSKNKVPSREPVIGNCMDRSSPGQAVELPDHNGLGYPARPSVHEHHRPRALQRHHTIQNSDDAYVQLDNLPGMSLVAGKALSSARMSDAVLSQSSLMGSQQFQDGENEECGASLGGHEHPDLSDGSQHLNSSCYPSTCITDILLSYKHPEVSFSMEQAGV

Activity [1]: 101%
Activity [2]: 86%
Activity [3]: 106%
Activity [4]: 101%
Activity [5]: 119%
Activity [6]: 101%
Activity [7]: 118%
Activity [8]: 89%
Activity [9]: 9%
Activity [10]: 106%
Activity [11]: 90%
Activity [12]: 125%
inhibition [13]: 91%
Activity [14]: 112%
Activity [15]: 106%
Activity [16]: 121%
Activity [17]: 116%
pIC50 [18]: 9.70
Activity [19]: 86%
Activity [20]: 99%
Activity [21]: 121%
inhibition [22]: 60%
Ratio IC50 [23]: 940
Activity [24]: 97%
Activity [25]: 30%
Activity [26]: 97%
Activity [27]: 95%
Structure (SMILES): Cc1cccc(-c2nc(N)sc2-c2ccc3ncccc3n2)c1
